Source: patent US20150291658A1, “NOVEL CHONDRAMIDE DERIVATIVES” (HELMOLTZ-ZENTRUM FÜR INFEKTIONSFORSCHUNG, priority 2012, published 2015)
Where two headings read alike, the source gives them in different places.

Assays:
[1] = test system: human U-2 OS osteosarcoma cell line; test: Growth inhibition experiments (MTT, 5 d), U-2 OS; type: cell-based
Method: (§1) Cells were seeded at 6×10^3 cells per well of 96-well plates (Corning CellBind®) in 180 μl complete medium and directly treated with chondramides dissolved in methanol in a serial dilution. Each compound was tested in duplicate for 5 d, as well as the internal methanol control. After 5 d incubation, 20 μl of 5 mg/ml MTT (Mosmann, T. (1983). Rapid Colorimetric Assay for Cellular Growth and Survival: Application to Proliferation and Cytotoxicity Assays. J. Immunol. Meth. 65, 55-63) in PBS was added per well and it was further incubated for 2 h at 37° C. The medium was then discarded and cells were washed with 100 μl PBS before adding 100 μl 2-propanol/10 N HCl (250:1) in order to dissolve formazan granules. The absorbance at 570 nm was measured using a microplate reader (EL808, Bio-Tek Instruments Inc.), and cell viability was expressed as percentage relative to the respective methanol control. GI50 values were obtained by sigmoidal curve fitting. Testing of fractions was performed likewise using 1.2×10^4 cells per well. Samples were dissolved in cell culture medium and cells were treated for 2 d before adding MTT. Viability was expressed relative to the untreated control.

[2] = test system: HCT-116 colon carcinoma cell line; test: Growth inhibition experiments (MTT, 5 d), HCT-116; type: cell-based, human
Method: as §1

[3] = test system: KB-3.1: human cervical carcinoma; test: Growth inhibition experiments (GI50), KB-3.1; type: cell-based; details: for GI50 KB-3.1: group A derivatives, small panel of cancer cell lines, KB-3.1 human cervical carcinoma; for GI50 values KB-3.1: Table 1
[4] = test system: RAW246.7: murine leukemic monocyte macrophages; test: Growth inhibition experiments (GI50), RAW246.7; type: cell-based; details: group A derivatives, small panel of cancer cell lines
[5] = test system: HUVEC, human umbilical vein endothelial cells (primary cells); test: Growth inhibition experiments (MTT, 5 d), HUVEC; type: cell-based; details: Table 1
Excerpt: (§2) With primary cells (HUVEC, human umbilical vein endothelial cells) and the fibroblast cell line MRC5 this is not the case. Whereas chondramides A˜C are comparably active on both, cancer and non-cancerous cells, brominated chondramide C3 analogs are on average by factor 2-4 less toxic for non-cancerous cells. Accordingly they show a higher selectivity.
Cell lines were obtained from the American Type Culture Collection (ATCC) and the German Collection of Microorganisms and Cell Cultures (Deutsche Sammlung für Mikroorganismen and Zellkulturen, DSMZ), and HUVEC (single donor) were purchased from PromoCell. Cells were cultured under the conditions recommended by the respective depositor in a standard humidified incubator at 37° C. with 5% CO2.
as §1

[6] = test system: fibroblast cell line MRC5; test: Growth inhibition experiments (MTT, 5 d), MRC5; type: cell-based, human; details: Table 1
Method: as §2, §1

[7] = test system: multidrug resistant (MDR) KB-V.1 cell line; test: Growth inhibition experiments (MTT, 5 d), KB-V.1; type: cell-based; details: Table 1
Method: Cancer Inst. 90, 1559-1563). […] The same applies for most novel derivatives, solely a hydroxyl group at C2′ of the polyketide segment instead of methoxy or simply hydrogen leads to an approximately 10-fold reduced potency. GI50 values of glycosylated derivatives were not determinable precisely in the assay's concentration range.
as §1

L-929 = test: Growth inhibition experiments (GI50), L-929; type: cell-based; details: Table 1
[8] = group A derivatives, small panel of cancer cell lines, U-2 OS human osteosarcoma, read-out: GI50 U-2 OS
[9] = group A derivatives, small panel of cancer cell lines, HCT-116 human colon carcinoma, read-out: GI50 HCT-116
[10] = Table 1, U-2 OS, read-out: GI50 values U-2 OS
[11] = Table 1, HCT-116, read-out: GI50 values HCT-116

SMILES | GI50 [1, 8] [nM] | GI50 [2, 9] [nM] | GI50 KB-3.1 [3] [nM] | GI50 [4] [nM] | GI50 [1, 10] [nM] | GI50 [2, 11] [nM] | GI50 [5] [nM] | GI50 [6] [nM] | GI50 values KB-V.1 [7] [nM] | GI50 values KB-3.1 [3] [nM] | GI50 (L-929) [nM]
CCC1C/C=C(\C)CC(C)C(=O)NC(C)C(=O)N(C)C(C(C)C)C(=O)NC(c2ccc(O)c(Cl)c2)CC(=O)O1 (single isomer, unassigned) [CA6-Fr1] | 59.6 | 79.4 | 71.4 | 41.1 |  |  |  |  |  |  | 
CCC1C/C=C(\C)CC(C)C(=O)NC(C)C(=O)N(C)C(C(C)C)C(=O)NC(c2ccc(O)c(Cl)c2)CC(=O)O1 (single isomer, unassigned) [CA6-Fr2] | 65.4 | 101 | 74.5 | 105 |  |  |  |  |  |  | 
CCC1C/C=C(\C)CC(C)C(=O)NC(C)C(=O)N(C)C(Cc2c(Cl)[nH]c3ccccc23)C(=O)NC(c2ccc(O)c(Cl)c2)CC(=O)O1 (single isomer, unassigned) [CA7-Fr1] | 53.5 | 16.3 | 97.9 | 74.7 |  |  |  |  |  |  | 
CCC1C/C=C(\C)CC(C)C(=O)NC(C)C(=O)N(C)C(Cc2c(Cl)[nH]c3ccccc23)C(=O)NC(c2ccc(O)c(Cl)c2)CC(=O)O1 (single isomer, unassigned) [CA7-Fr2] | 1.3 | 0.8 | 1.9 | 1.8 |  |  |  |  |  |  | 
CC1=CC(C)C(C)OC(=O)CC(c2ccc(O)c(Br)c2)NC(=O)C(Cc2c[nH]c3ccccc23)N(C)C(=O)C(C)NC(=O)C(C)C1 (stereo not shown) [Bromo-Chondramide C3] |  |  |  |  | 4.8 ± 1.7 | 17.7 ± 1.3 | 44.4 ± 7 | 57.7 ± 3.5 | 23.8 ± 2.1 | 46.8 ± 6.5 | 14 ± 1.4
C/C1=C\CCOC(=O)CC(c2ccc(O)c(Cl)c2)NC(=O)C(Cc2c(Cl)[nH]c3ccccc23)N(C)C(=O)C(C)NC(=O)CC1 (stereo not shown) [CA2] | 66.7 | 30.5 | 375.9 | 180 |  |  |  |  |  |  | 
C/C1=C\CCOC(=O)CC(c2ccc(O)c(Br)c2)NC(=O)C(Cc2c[nH]c3ccccc23)N(C)C(=O)C(C)NC(=O)CC1 (stereo not shown) [CA3] | 1.8 | 2.1 | 6.4 | 6.2 |  |  |  |  |  |  | 
CCC1C/C=C(\C)CCC(=O)NC(C)C(=O)N(C)C(C(C)C)C(=O)NC(c2ccc(O)c(Cl)c2)CC(=O)O1 (stereo not shown) [CA4] | > 180 | 25.5 | 58.2 | 29.8 |  |  |  |  |  |  | 
CCC1C/C=C(\C)CCC(=O)NC(C)C(=O)N(C)C(C(C)C)C(=O)NC(c2ccc(O)c(Cl)c2)CC(=O)O1 (stereo not shown) [CA5] | 153 | 77.3 | 68.7 | 56.2 |  |  |  |  |  |  | 
CCC1C/C=C(\C)CCC(=O)NC(C)C(=O)N(C)C(Cc2c(Cl)[nH]c3ccccc23)C(=O)NC(c2ccc(O)c(Cl)c2)CC(=O)O1 (stereo not shown) [CA8] | 0.6 | 0.2 | 1.1 | 0.8 |  |  |  |  |  |  | 
C/C1=C\CCOC(=O)CC(c2ccc(O)c(Cl)c2)NC(=O)C(C(C)C)N(C)C(=O)C(C)NC(=O)CC1 (stereo not shown) [CA9] | > 180 | 180 | >180 | > 180 |  |  |  |  |  |  | 
CO[C@@H]1C(=O)O[C@H](C)[C@@H](C)C=C(C)C[C@H](C)C(=O)N[C@@H](C)C(=O)N(C)[C@H](Cc2c(Cl)[nH]c3ccccc23)C(=O)NC1c1ccc(O)cc1 (stereo partly shown) [Chondramide B, reference compound] |  |  |  |  | 20.8 ± 1.9 | 30.1 ± 9.5 | 30.7 ± 2.9 | 20.9 ± 3.2 | 56.4 ± 9.1 | 40.7 ± 9.4 | 80.8 ± 13.6
C/C1=C\[C@@H](C)[C@@H](C)OC(=O)C[C@H](c2ccc(O)cc2)NC(=O)[C@@H](Cc2c[nH]c3ccccc23)N(C)C(=O)[C@H](C)NC(=O)[C@@H](C)C1 [Chondramide C, reference compound] |  |  |  |  | 25.6 ± 1.2 | 33.7 ± 3.2 | 34 ± 3.7 | 26.1 ± 4.7 | 85.8 ± 14.9 | 36.8 ± 6.8 | 87.3 ± 14.9
